MIC data for five molecules are collected here from DBAASP.

Among the test systems are Escherichia coli TOP 10; Candida krusei ATCC 6258; Listeria monocytogenes; Acinetobacter baumannii; Escherichia coli O157:H7; Vibrio cholerae O1 Inaba; Candida albicans; Escherichia coli UB1005; Escherichia coli; Staphylococcus aureus MR.
What all share (assay): ≥ marks a high value that may be exact or a test limit, other limits are often not marked, values filed in µg/mL are converted to µM
For assay [1], the system named is Enterococcus faecalis ATCC 29212.
Assay [2] deals with Escherichia coli ATCC 12795.
Assay [3] concerns Klebsiella pneumoniae ATCC 10031.
Assay [4] relates to Mannheimia haemolytica 82-25.
Assay [5] concerns Pseudomonas aeruginosa ATCC 27312.
In assay [6] the test system is Serratia marcescens ATCC 14756.
Assay [7] has as its system Staphylococcus aureus ATCC 29213.
For assay [8], the system named is Escherichia coli ATCC 25922.
Assay [9] concerns Escherichia coli ATCC 35218.
Assay [10] concerns Pseudomonas aeruginosa RP73.
Assay [11] concerns Salmonella enterica subsp. enterica serovar Enteritidis 706 RIVM.
Assay [12] relates to Salmonella enterica subsp. enterica serovar Typhimurium ATCC 14028.
Assay [13] has as its system Staphylococcus aureus WKZ2.
Assay [14] deals with Bacillus cereus ATCC 11778.
For assay [15], the system named is Listeria monocytogenes 10403s.
In assay [16] the test system is Pseudomonas aeruginosa ATCC 27853.
Assay [17] concerns Salmonella enterica subsp. enterica serovar Typhimurium ATCC 13311.
Assay [18] concerns Shigella sonnei ATCC 11060.
Assay [19] deals with Staphylococcus aureus ATCC 25923.
The test system of assay [20] is Staphylococcus epidermidis ATCC 12228.
The test system of assay [21] is Enterococcus faecalis NCTC 12203.
In assay [22] the test system is Mycobacterium tuberculosis H37Rv.
Assay [23] concerns Pseudomonas aeruginosa 253.
Assay [24] deals with Pseudomonas aeruginosa 910.
Assay [25] has as its system Pseudomonas aeruginosa 919.
Assay [26] concerns Pseudomonas aeruginosa H103.
In assay [27] the test system is Pseudomonas aeruginosa PAO1.
The test system of assay [28] is Salmonella enterica serovar Typhimurium.
The test system of assay [29] is Staphylococcus epidermidis.

Values after ≈ are worked out from the molar mass of the structure shown. Values joined by “and” are separate entries in the source; they are usually repeats but may differ in a detail not shown here. Equal entries are not always repeated.

Consider `CC[C@H](C)[C@H](NC(=O)[C@H](CCCCN)NC(=O)[C@H](CO)NC(=O)[C@@H](NC(=O)[C@@H](NC(=O)[C@H](CC(N)=O)NC(=O)[C@H](CCCCN)NC(=O)[C@H](Cc1ccccc1)NC(=O)[C@H](C)NC(=O)[C@@H]1CCCN1C(=O)[C@H](CC(C)C)NC(=O)[C@@H](N)Cc1ccccc1)C(C)C)[C@@H](C)CC)C(=O)N[C@@H](CC(C)C)C(=O)N[C@@H](CCCCN)C(=O)N[C@@H](C)C(=O)N[C@@H](CC(C)C)C(=O)N[C@@H](CCCCN)C(=O)N[C@@H](CCCCN)C(=O)N[C@@H](CCCCN)C(=O)N[C@H](C(N)=O)C(C)C` [FLPAFKNVISKILKALKKKV], for which, in the assay with Escherichia coli TOP 10, the MIC (usually the least concentration at which growth counts as inhibited) was 5.47 µM (≈ 12.5 µg/mL).

Consider `C[C@H](N)C(=O)N[C@@H](CC(=O)O)C(=O)N[C@@H](C)C(=O)N[C@@H](CC(=O)O)C(=O)N[C@@H](CC(=O)O)C(=O)N[C@@H](CC(=O)O)C(=O)N[C@@H](CC(=O)O)C(=O)N[C@@H](CC(=O)O)C(=O)N[C@@H](CCCCN)C(=O)O` [ADADDDDDK], for which the MIC against Candida krusei ATCC 6258 is ≥ 5110 µM; in [1], 1800 µM (≈ 1760 µg/mL); in assay [2] it was ≥ 850 µM; in assay [3] it was ≥ 900 µM; in [4], ≥ 230 µM; in assay [5], ≥ 1500 µM. The MIC in assay [6] was ≥ 1500 µM; in assay [7], 1800 µM (≈ 1760 µg/mL).

Turning to `CC[C@H](C)[C@H](NC(=O)[C@@H]1CCCN1)C(=O)N[C@@H](CCSC)C(=O)N[C@@H](Cc1ccc(O)cc1)C(=O)N[C@@H](CCCCN)C(=O)N[C@H](C(=O)N1CCC[C@H]1C(=O)N[C@@H](CC(C)C)C(=O)N[C@H](C(=O)N[C@@H](CCCN=C(N)N)C(=O)N[C@@H](CCCCN)C(=O)N[C@@H](CCCCN)C(=O)N[C@@H](CO)C(=O)N[C@@H](CC(C)C)C(=O)N[C@@H](CCCN=C(N)N)C(=O)N[C@@H](CCCN=C(N)N)C(=O)N[C@H](C(=O)N[C@@H](CC(C)C)C(=O)N[C@@H](CO)C(=O)N[C@@H](CCC(=O)O)C(=O)N[C@@H](CCCN=C(N)N)C(=O)NCC(=O)N[C@@H](CC(C)C)C(=O)N[C@@H](CC(C)C)C(=O)N[C@@H](CCCCN)C(=O)N[C@@H](CC(=O)O)C(=O)O)[C@@H](C)O)[C@@H](C)CC)C(C)C` [PIMYKVPLIRKKSLRRTLSERGLLKD], the MIC in assay [1] is 50 µM (≈ 156 µg/mL); in assay [8], 25 µM (≈ 77.8 µg/mL); in assay [9] it was 25 µM (≈ 77.8 µg/mL); in the assay on Listeria monocytogenes, ≥ 50 µM; in assay [10], 12.5 µM (≈ 38.9 µg/mL); in assay [11], ≥ 50 µM. Also, the results for the MIC in assay [12] and in assay [13] were > 12.5 µM and 25 µM (≈ 77.8 µg/mL), respectively.

For `CC[C@H](C)[C@H](NC(=O)[C@H](CCCN=C(N)N)NC(=O)[C@H](CCCCN)NC(=O)[C@H](C)NC(=O)[C@@H](NC(=O)[C@@H](N)CCCCN)[C@@H](C)CC)C(=O)N[C@@H](Cc1c[nH]c2ccccc12)C(=O)N[C@@H](CCCCN)C(=O)N[C@H](C(=O)N[C@@H](CC(C)C)C(=O)N[C@@H](CCCN=C(N)N)C(=O)N[C@@H](CCCN=C(N)N)C(=O)N[C@@H](CCCN=C(N)N)C(=O)N[C@@H](CC(C)C)C(=O)N[C@@H](Cc1ccccc1)C(N)=O)[C@@H](C)CC` [KIAKRIWKILRRRLF], the MIC in the assay with Acinetobacter baumannii was 1.96 µM (≈ 3.91 µg/mL); in assay [14], 1.96 µM (≈ 3.91 µg/mL); in assay [1], 15.6 µM (≈ 31.2 µg/mL); in assay [8] it was 7.82 µM (≈ 15.6 µg/mL); against Escherichia coli O157:H7, 7.82 µM (≈ 15.6 µg/mL); in assay [15], 0.976 µM (≈ 1.95 µg/mL). The MIC was found to be 3.91 µM (≈ 7.81 µg/mL) in [16]; 0.976 µM (≈ 1.95 µg/mL) in assay [17]; 1.96 µM (≈ 3.91 µg/mL) in assay [18]; 3.91 µM (≈ 7.81 µg/mL) in [19]; 1.96 µM (≈ 3.91 µg/mL) in assay [20]; 1.96 µM (≈ 3.91 µg/mL) in the assay with Vibrio cholerae O1 Inaba.

Consider `CC[C@H](C)[C@H](NC(=O)[C@H](CCCN=C(N)N)NC(=O)[C@H](Cc1c[nH]c2ccccc12)NC(=O)[C@H](CCCN=C(N)N)NC(=O)[C@@H](N)CCCN=C(N)N)C(=O)N[C@H](C(=O)N[C@H](C(=O)N[C@H](C(=O)N[C@@H](CCCN=C(N)N)C(=O)N[C@H](C(=O)N[C@@H](CCCN=C(N)N)C(=O)N[C@@H](CCCN=C(N)N)C(=O)O)C(C)C)[C@@H](C)CC)C(C)C)C(C)C` [RRWRIVVIRVRR], for which the MIC was determined as 2.4 µM (≈ 4 µg/mL) against Candida albicans; 2.4 µM (≈ 4 µg/mL) in assay [1]; 1.2 µM (≈ 2 µg/mL) in assay [21]; 2 µM (≈ 3.33 µg/mL) in assay [8]; 0.601 µM (≈ 1 µg/mL) against Escherichia coli UB1005; 1.2 µM (≈ 2 µg/mL) against Escherichia coli. For the same molecule, the MIC came out at 1.92 µM (≈ 3.2 µg/mL) in [22]; 8 µM (≈ 13.3 µg/mL) in assay [23]; 16 µM (≈ 26.6 µg/mL) in [24]; 16 µM (≈ 26.6 µg/mL) in assay [25]; 1.2 µM (≈ 2 µg/mL) in assay [26]; 8 µM (≈ 13.3 µg/mL) in assay [27]. For the same molecule, the MIC in assay [28] was 2.4 µM (≈ 4 µg/mL); in [19], 4 µM (≈ 6.66 µg/mL); in assay [7], 1.2 µM (≈ 2 µg/mL); in the assay on Staphylococcus aureus MR it was 1.2 µM (≈ 2 µg/mL); in assay [29], 0.12 µM and 0.3 µM.
